Assay results from the supplement of paper PMC10307832.

Assays:
Experiment in all cases: relative viability (nuclei count vs DMSO), 5 days (fraction); higher = more cells survive
[1] = tested on: EKVX
Outline: (§1)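 One day after seeding in 1536-well plates, lung cancer cell lines were dosed by pin tool. Dosing was either single-drug or a fixed anchor-drug dose plus five library-drug doses (not always all listed) in √10 steps. After 5 days, nuclei were stained in one fix-and-stain step and counted on 4× images, and relative viability is the nuclei count of treated wells over that of vehicle wells, given as the median of duplicate plates.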

[2] = tested on: HCC-15
Outline: as §1

[3] = tested on: HCC-44
Outline: as §1

[4] = tested on: IA-LM
Outline: as §1

[5] = tested on: LCLC-103H
Outline: as §1

[6] = tested on: NCI-H1395
Outline: as §1

[7] = tested on: NCI-H1648
Outline: as §1

[8] = tested on: NCI-H1755
Outline: as §1

[9] = tested on: UMC-11
Outline: as §1

O=c1cc(N2CCOCC2)oc2c(-c3cccc4c3sc3ccccc34)cccc12 + O=C(CCCCCCC(=O)Nc1ccccc1)NO [Vorinostat] (partner 1 µM)
relative viability ([1]; first compound 0.01 µM): 0.723 | relative viability ([1]; first compound 0.03162 µM): 0.748 | relative viability ([1]; first compound 0.1 µM): 0.681 | relative viability ([1]; first compound 0.3162 µM): 0.753 | relative viability ([1]; first compound 1 µM): 0.736 | relative viability ([2]; first compound 0.01 µM): 0.839 | relative viability ([2]; first compound 0.03162 µM): 0.775 | relative viability ([2]; first compound 0.1 µM): 0.858 | relative viability ([2]; first compound 0.3162 µM): 0.765 | relative viability ([2]; first compound 1 µM): 0.847 | relative viability ([3]; first compound 0.01 µM): 1.05 | relative viability ([3]; first compound 0.03162 µM): 1.05 | relative viability ([3]; first compound 0.1 µM): 1.06 | relative viability ([3]; first compound 0.3162 µM): 1.03 | relative viability ([3]; first compound 1 µM): 1.07 | relative viability ([4]; first compound 0.01 µM): 0.965 | relative viability ([4]; first compound 0.03162 µM): 0.986 | relative viability ([4]; first compound 0.1 µM): 0.907 | relative viability ([4]; first compound 0.3162 µM): 0.901 | relative viability ([4]; first compound 1 µM): 0.909 | relative viability ([5]; first compound 0.01 µM): 0.739 | relative viability ([5]; first compound 0.03162 µM): 0.824 | relative viability ([5]; first compound 0.1 µM): 0.826 | relative viability ([5]; first compound 0.3162 µM): 0.826 | relative viability ([5]; first compound 1 µM): 0.857 | relative viability ([6]; first compound 0.03162 µM): 0.719 | relative viability ([6]; first compound 0.1 µM): 0.565 | relative viability ([6]; first compound 0.3162 µM): 1.05 | relative viability ([6]; first compound 1 µM): 0.635 | relative viability ([7]; first compound 0.03162 µM): 0.577 | relative viability ([7]; first compound 0.1 µM): 0.438 | relative viability ([7]; first compound 0.3162 µM): 0.419 | relative viability ([7]; first compound 1 µM): 0.689 | relative viability ([8]; first compound 0.01 µM): 0.828 | relative viability ([8]; first compound 0.03162 µM): 0.775 | relative viability ([8]; first compound 0.1 µM): 0.793 | relative viability ([8]; first compound 0.3162 µM): 0.741 | relative viability ([8]; first compound 1 µM): 0.834 | relative viability ([9]; first compound 0.01 µM): 0.386 | relative viability ([9]; first compound 0.03162 µM): 0.368 | relative viability ([9]; first compound 0.1 µM): 0.365 | relative viability ([9]; first compound 0.3162 µM): 0.429 | relative viability ([9]; first compound 1 µM): 0.311

CCN(CC)CCCCNc1ncc2cc(-c3cc(OC)cc(OC)c3)c(NC(=O)NC(C)(C)C)nc2n1 + O=C(CCCCCCC(=O)Nc1ccccc1)NO [Vorinostat] (partner 1 µM)
relative viability ([1]; first compound 0.01 µM): 0.814 | relative viability ([1]; first compound 0.03162 µM): 0.734 | relative viability ([1]; first compound 0.1 µM): 0.731 | relative viability ([1]; first compound 0.3162 µM): 0.704 | relative viability ([1]; first compound 1 µM): 0.621 | relative viability ([2]; first compound 0.01 µM): 0.857 | relative viability ([2]; first compound 0.03162 µM): 0.849 | relative viability ([2]; first compound 0.1 µM): 0.867 | relative viability ([2]; first compound 0.3162 µM): 0.929 | relative viability ([2]; first compound 1 µM): 0.836 | relative viability ([3]; first compound 0.01 µM): 1.11 | relative viability ([3]; first compound 0.03162 µM): 1.08 | relative viability ([3]; first compound 0.1 µM): 1.16 | relative viability ([3]; first compound 0.3162 µM): 1.08 | relative viability ([3]; first compound 1 µM): 1.15 | relative viability ([4]; first compound 0.01 µM): 0.963 | relative viability ([4]; first compound 0.03162 µM): 0.836 | relative viability ([4]; first compound 0.1 µM): 0.852 | relative viability ([4]; first compound 0.3162 µM): 1.26 | relative viability ([4]; first compound 1 µM): 0.979 | relative viability ([5]; first compound 0.01 µM): 0.776 | relative viability ([5]; first compound 0.03162 µM): 0.805 | relative viability ([5]; first compound 0.1 µM): 0.775 | relative viability ([5]; first compound 0.3162 µM): 0.788 | relative viability ([5]; first compound 1 µM): 0.769 | relative viability ([6]; first compound 0.01 µM): 0.648 | relative viability ([6]; first compound 0.03162 µM): 0.786 | relative viability ([6]; first compound 0.1 µM): 0.714 | relative viability ([6]; first compound 0.3162 µM): 0.742 | relative viability ([6]; first compound 1 µM): 0.513 | relative viability ([7]; first compound 0.01 µM): 0.48 | relative viability ([7]; first compound 0.03162 µM): 0.352 | relative viability ([7]; first compound 0.1 µM): 0.666 | relative viability ([7]; first compound 0.3162 µM): 0.602 | relative viability ([7]; first compound 1 µM): 0.327 | relative viability ([8]; first compound 0.01 µM): 0.71 | relative viability ([8]; first compound 0.03162 µM): 0.919 | relative viability ([8]; first compound 0.1 µM): 0.848 | relative viability ([8]; first compound 0.3162 µM): 0.965 | relative viability ([8]; first compound 1 µM): 0.746 | relative viability ([9]; first compound 0.01 µM): 0.4 | relative viability ([9]; first compound 0.03162 µM): 0.36 | relative viability ([9]; first compound 0.1 µM): 0.361 | relative viability ([9]; first compound 0.3162 µM): 0.394 | relative viability ([9]; first compound 1 µM): 0.311

COc1nc(C)cnc1NS(=O)(=O)c1cccnc1-c1ccc(-c2nnco2)cc1 [Zibotentan] + CC(=O)Nc1cccc(-n2c(=O)n(C3CC3)c(=O)c3c(Nc4ccc(I)cc4F)n(C)c(=O)c(C)c32)c1 [Trametinib] (partner 0.02 µM)
relative viability ([1]; first compound 0.08 µM): 0.33 | relative viability ([1]; first compound 0.253 µM): 0.364 | relative viability ([1]; first compound 0.8 µM): 0.315 | relative viability ([1]; first compound 2.53 µM): 0.321 | relative viability ([2]; first compound 0.08 µM): 0.397 | relative viability ([2]; first compound 0.253 µM): 0.412 | relative viability ([2]; first compound 0.8 µM): 0.414 | relative viability ([2]; first compound 2.53 µM): 0.319 | relative viability ([3]; first compound 0.08 µM): 1.11 | relative viability ([3]; first compound 0.253 µM): 1 | relative viability ([3]; first compound 0.8 µM): 0.953 | relative viability ([3]; first compound 2.53 µM): 1.07 | relative viability ([5]; first compound 0.08 µM): 0.685 | relative viability ([5]; first compound 0.253 µM): 0.704 | relative viability ([5]; first compound 0.8 µM): 0.68 | relative viability ([5]; first compound 2.53 µM): 0.737 | relative viability ([6]; first compound 0.08 µM): 1.05 | relative viability ([6]; first compound 0.253 µM): 0.947 | relative viability ([6]; first compound 0.8 µM): 1.07 | relative viability ([6]; first compound 2.53 µM): 1.07 | relative viability ([7]; first compound 0.08 µM): 0.49 | relative viability ([7]; first compound 0.253 µM): 0.529 | relative viability ([7]; first compound 0.8 µM): 0.442 | relative viability ([7]; first compound 2.53 µM): 0.604 | relative viability ([8]; first compound 0.08 µM): 0.737 | relative viability ([8]; first compound 0.253 µM): 0.745 | relative viability ([8]; first compound 0.8 µM): 0.797 | relative viability ([8]; first compound 2.53 µM): 0.792 | relative viability ([9]; first compound 0.08 µM): 0.617 | relative viability ([9]; first compound 0.253 µM): 0.665 | relative viability ([9]; first compound 0.8 µM): 0.741 | relative viability ([9]; first compound 2.53 µM): 0.779
